Assay results as given in US20100204143A1, “GAMMA 1 MSH ALONE OR IN COMBINATION WITH PENTAGASTRIN AS A THERAPEUTIC AGENT” (priority 2007, published 2010).
No end group written: not given here.

Experiments:
[1] = test system: hepatitis B virus (HBV) ayw strain; assay: HBV experimental assay system (HepG2-2.2.15, TaqMan PCR of HBV DNA); assay type: cell-based; conditions: 10 micrograms per ml; six days; as compared to the virus control infection
TNF-a spleen cells = assay: Th1/Th2 cytokine profiling assay: TNF-a; assay type: cell-based, Balb/c mice; conditions: 10 micrograms per ml; Ovalbumin restimulation; 72 hours
From the text: (§1) The Balb/c mice (originated in 1923, it is a popular strain and is used in many different research disciplines. Also classified as an inbred from the production of 20 or more successive brother-sister matings, the Balb/c mouse is albino and small in size) were immunized on Days 1, 15, and 29 with Ovalbumin (Ovalbumin is the main protein found in egg white, commonly used to stimulate an immunological reaction in test animals) in PBS (5 micrograms/injection). On day 50, spleens of the mice were harvested (3 weeks after last boost with Ovalbumin). […] Thereafter, additional Ovalbumin was added to the cells at 10 micrograms/ml for in vitro restimulation of the cells. 72 hours later, cell supernatants were harvested and assayed using the Becton Dickinson Mouse Th1/Th2 Cytokine CBA Kit. This kit can be used to measure Interleukin-2 (IL-2), Interleukin-4 (IL-4), Interleukin-5 (IL-5), Interferon-γ (IFN-γ), and Tumor Necrosis Factor-α (TNF-α) protein levels in a single sample.

IFNγ spleen cells = assay: Th1/Th2 cytokine profiling assay: IFNγ; assay type: cell-based, Balb/c mice; conditions: 10 micrograms per ml; Ovalbumin restimulation; 72 hours
From the text: as §1

IL-2 spleen cells = assay: Th1/Th2 cytokine profiling assay: IL-2; assay type: cell-based, Balb/c mice; conditions: 10 micrograms per ml; Ovalbumin restimulation; 72 hours
From the text: as §1

IL-4 spleen cells = assay: Th1/Th2 cytokine profiling assay: IL-4; assay type: cell-based, Balb/c mice; conditions: 10 micrograms per ml; Ovalbumin restimulation; 72 hours
From the text: as §1

IL-5 spleen cells = assay: Th1/Th2 cytokine profiling assay: IL-5; assay type: cell-based, Balb/c mice; conditions: 10 micrograms per ml; Ovalbumin restimulation; 72 hours
From the text: The Balb/c mice (originated in 1923, it is a popular strain and is used in many different research disciplines. Also classified as an inbred from the production of 20 or more successive brother-sister matings, the Balb/c mouse is albino and small in size) were immunized on Days 1, 15, and 29 with Ovalbumin (Ovalbumin is the main protein found in egg white, commonly used to stimulate an immunological reaction in test animals) in PBS (5 micrograms/injection). On day 50, spleens of the mice were harvested (3 weeks after last boost with Ovalbumin). […] Thereafter, additional Ovalbumin was added to the cells at 10 micrograms/ml for in vitro restimulation of the cells. 72 hours later, cell supernatants were harvested and assayed using the Becton Dickinson Mouse Th1/Th2 Cytokine CBA Kit.

[2] = test system: Primary Human endothelial cells (HUVEC); assay: Endothelial cell migration assay; assay type: cell-based; conditions: 10 micrograms per ml, 22 hours
[3] = test system: cyclic AMP generation in human peripheral blood mononuclear cells (PBMC); assay: cAMP induction assay; assay type: cell-based; conditions: single peptides, 10 min at 37° C.
Experimental: The cAMP kit was used as an immunoassay for the quantitative determination of cyclic AMP generation in human peripheral blood mononuclear cells (PBMC). PBMC were placed in 96-well microtitier plates (50 microliters of cells at 4×10^6/ml) and 50 microliters of medium alone (background control), forskolin (cAMP positive control; 50 micrograms per ml), or test peptides were added. Plates were mixed and incubated for 10 min at 37° C. and the cells were lysed by the addition of 50 microliters of 3% perchloric acid. NaOH was added to neutralize the samples. Plates were centrifuged for 15 min at 2500 rpm and the supernatants removed. The supernatants (diluted 2-fold in assay buffer) were then assayed for the levels of cAMP by ELISA.

Tyr-Val-Met-Gly-His-Phe-Arg-Trp-Asp-Arg-Phe-NH2 (YVMGHFRWDRF-NH2) [peptide 1]
inhibition of HBV replication [1]: 17.4% | TNF-a spleen cells; TH1 response (% of control) (TNF-a spleen cells): 85.7 % of control | IFNγ spleen cells; TH1 response (% of control) (IFNγ spleen cells): 97.3 % of control | IL-2 spleen cells (% of control) (IL-2 spleen cells): 101.6 % of control | IL-4 spleen cells; TH2 response (% of control) (IL-4 spleen cells): 0.0 % of control | IL-5 spleen cells; TH2 response (% of control) (IL-5 spleen cells): 67.0 % of control | induction of the migration of human endothelial cells [2]: 12% | induction of cAMP formation in human peripheral blood cells [3]: 45.4%
